Laboratory results reported in patent US20250353812A1, “2,6-DIBENZYLIDENECYCLOHEXANONE OXIME COMPOUND AND PREPARATION METHOD THEREFOR AND USE THEREOF” (WENZHOU MEDICAL UNIVERSITY, priority 2022, published 2025).

What was measured:
[1] = system: liver lipid metabolism of obese mice; test: Protective effect on liver lipid metabolism of obese mice (high-fat diet); type: in vivo; conditions: HFD mice; Example 9 12 mg/kg, Example 2 10 mg/kg, intragastric gavage every two days for 8 weeks
Protocol: (§1) A suspension of 0.5% sodium carboxymethylcellulose and the compounds of Examples was prepared for intragastric administration. The blank control group and the high-fat diet obesity model group were administrated with equal doses of solvent (0.5% CMC-Na solution) intragastrically. The mice were first adaptively raised for 1 week, and when the mice were 8 weeks old, they were randomly divided into 2 groups (A: Con, B: HFD). Group A was fed with normal mouse feed, and mice in group B were fed with 60% high-fat feed for 16 weeks. After the model was successfully established at 12 weeks, the mice in group B were randomly divided into three groups (i: HFD, ii: HFD+Example 9, 12 mg/kg, iii: HFD+Example 2, 10 mg/kg). The body weight of the mice was measured and recorded every week, and groups ii and iii were treated with the compounds of Examples by intragastric gavage every two days for 8 weeks. After 24 weeks, the mice were anesthetized and sacrificed, and blood samples were collected and centrifuged to collect serum for various serum biochemical tests; the liver was removed, and the liver tissue was cut and embedded (frozen and paraffin) for immunohistochemistry and other analyses. The remaining liver tissues were snap frozen in liquid nitrogen and stored in a −80° C. freezer.
The liver lipid metabolism of obese mice is taken as an example. […] It can be clearly seen from the above test results that the compound having the structure of formula I of the present invention has a protective effect on the liver lipid metabolism of obese mice.

IL-6 = test: Inhibition of IL-6 release from J774A.1 macrophages stimulated by LPS (ELISA); type: cell-based; conditions: 10 μM compound pretreatment 2 h, then 0.5 μg/mL LPS 22 h, LPS control = 100, FIG. 1
Protocol: (§2) The present invention tested the dose-effect relationship of some of the compounds of Examples in inhibiting the release of IL-6 and TNF-α from J774A.1 macrophages stimulated by LPS. The specific method is as follows: 1.2×10^6 […] macrophages were cultured by DMEM culture solution at 37° C., the culture solution was renewed after 24 h, the tested example compound (at a final concentration of 10 μM) was added for pretreatment for 2 h and then continuously treated by 0.5 μg/mL of LPS for 22 h, the culture solution was collected, and the content of IL-6 and TNF-α was detected by ELISA method. The total protein concentration was measured by collecting cells, the ELISA results were divided by the corresponding total protein concentration and calibrated by the IL-6 and TNF-α content of LPS control group as 100, and the average and error values were calculated.

TNF-α = test: Inhibition of TNF-α release from J774A.1 macrophages stimulated by LPS (ELISA); type: cell-based; conditions: 10 μM compound pretreatment 2 h, then 0.5 μg/mL LPS 22 h, LPS control = 100, FIG. 2
Protocol: as §2

[2] = system: liver inflammation in obese mice; test: Protective effect on liver inflammation in obese mice (high-fat diet); type: in vivo; conditions: HFD mice, Example 9 12 mg/kg, intragastric gavage every two days for 8 weeks; for macrophage infiltration in the liver (F4/80 staining) / upregulation of IL-1β gene in mouse liver tissue (mRNA) / upregulation of IL-6 gene in mouse liver tissue (mRNA) / upregulation of TNF-α gene in mouse liver tissue (mRNA): Example 2 10 mg/kg
Protocol: as §1
Taking the compounds of Examples 2 and 9 as examples, the experimental results are shown in FIGS. 3A-3D and FIGS. 4A-4E, where 2 and 9 represent the compounds of Example 2 and Example 9, respectively. Inflammation was assessed by examining macrophage infiltration in the liver using the macrophage-specific marker F4/80 staining. […] In addition, the expression of TNF-α, IL-6 and IL-1β genes in liver tissue was detected.

Compound	dyslipidemia caused by high-fat diet feeding (serum triglycerides, low-density lipoprotein cholesterol, total cholesterol) [1]	lipid accumulation in the liver (H&E staining) [1]	lipid accumulation in the liver (oil red staining of frozen sections, quantified) [1]	inhibitory effect on the release of IL-6 (IL-6)	inhibitory effect on the release of TNF-α (TNF-α)	macrophage infiltration in the liver (F4/80 staining) [2]	upregulation of IL-1β gene in mouse liver tissue (mRNA) [2]	upregulation of IL-6 gene in mouse liver tissue (mRNA) [2]	upregulation of TNF-α gene in mouse liver tissue (mRNA) [2]	degradation of IκB-α in the liver caused by high-fat diet feeding (Western blot) [2]
ON=C1/C(=C/c2ccccc2C(F)(F)F)CCC/C1=C\c1ccccc1C(F)(F)F [Example 9, 2,6-(E,E)-(2-(trifluoromethyl)benzylidene)cyclohexanone oxime]	significantly alleviated	significantly alleviated	significantly alleviates	significant inhibitory effect	significant inhibitory effect	decreased	significantly alleviated	significantly alleviated	significantly alleviated	significantly inhibit
CCCON=C1/C(=C/c2ccccc2C(F)(F)F)CCC/C1=C\c1ccccc1C(F)(F)F [Example 2, 2,6-(E,E)-(2-(trifluoromethyl)benzylidene)cyclohexan-1-one propyl oxime]	significantly alleviated	significantly alleviated	significantly alleviates	significant inhibitory effect	significant inhibitory effect	decreased	significantly alleviated	significantly alleviated	significantly alleviated	
